According to PMC7906020, “Trp-Containing Antibacterial Peptides Impair Quorum Sensing and Biofilm Development in Multidrug-Resistant Pseudomonas aeruginosa and Exhibit Synergistic Effects With Antibiotics” (Frontiers in Microbiology, 2021):
Values joined by “and” are separate entries in the source; they are usually repeats but may differ in a detail not shown here. Identical values can stand only once. Like-named read-outs stand apart in the source and are kept apart here.

What was measured:
[1] = tested on: rhamnolipid production in MRPA0108; experiment: Rhamnolipid production, orcinol method; type: cell-based, Pseudomonas aeruginosa; settings: peptide at 1/4 × MIC, 24 h, absorbance 420 nm, vs control, triplicate
Protocol: (§1) The culture supernatant was obtained after centrifugation at 12,000×g for 10 min. (1) LasB elastase activity was measured using elastin-Congo red (ECR) as the substrate, as described by [Pattnaik et al. (2018)]. Briefly, 100 μl of the culture supernatant was added to 900 μl of ECR buffer (100 mM Tris-HCl, 1 mM CaCl2, pH 7.5) containing 10 mg of ECR and then incubated with shaking at 37°C for 18 h. Then, 100 μl of 0.12 M EDTA was added to stop the reaction. The insoluble ECR was removed by centrifugation, and the supernatant absorbance was measured at 495 nm. The optical density (OD) 495 nm/OD 600 nm represents the elastase activity. (2) LasA protease activity was measured as follows ([Pattnaik et al., 2018]): first, the culture supernatant was filtered to remove the bacterial cells, and then 150 μl of sterile-filtered supernatant was added to 2% azocasein (prepared in 50 mM Tris-HCl) and incubated for 4 h at 37°C. Trichloroacetic acid (TCA, 10%) was added to precipitate the undigested substrate. After centrifugation at 10,000 rpm for 10 min, 1 M NaOH was added to the supernatant, and the relative protease activity was measured at OD 440 nm. (3) The pyocyanin assay was based on the absorbance of excreted pyocyanin at 520 nm in an acidic solution ([Kong et al., 2005]). Three milliliters of culture supernatant were mixed with 2 ml of chloroform for 20 min, and then the pyocyanin from the chloroform phase was reextracted using 0.2 M HCl for 15 min to obtain a pink-colored pyocyanin solution. The OD 520 nm was measured to evaluate the change in pyocyanin content. (4) Rhamnolipid detection was carried out as previously described ([Wittgens et al., 2011]). Briefly, 500 μl of culture supernatant was mixed with 500 μl of ethyl acetate and vortexed vigorously for 15 s to extract rhamnolipid. After centrifugation at 10,000×g for 5 min at 4°C, the organic phase containing rhamnolipids was obtained and evaporated at room temperature overnight. The rhamnolipid extract dissolved in ultrapure water was mixed with orcinol reagent (0.19% orcinol in 53% H2SO4) and incubated at 80°C for 30 min. The absorbance was measured at 420 nm. (5) The level of C4-HSL was quantified by GC-MS as previously described ([Guo et al., 2012]).

MRPA0108 = experiment: Checkerboard assay (FICI) of peptides with antibiotics; type: cell-based, Pseudomonas aeruginosa; settings: MRPA0108, 24 h 37°C, median of at least three experiments, synergy ≤ 0.5, additive 0.5-1, indifference 1-2
Protocol: The synergistic effect of peptides and antibiotics was evaluated using the checkerboard method, in which the fractional inhibitory concentration index (FICI) was used to analyze the type of interaction between compounds ([Berditsch et al., 2015]). A 100 μl inoculum of 10^5 CFU/ml planktonic bacteria was added to the respective wells of 96-well microtiter plates, and then serial dilutions of peptide and antibiotic at 100 μl volumes were added to each well and incubated at 37°C for 24 h. The OD 600 nm value was measured with a microplate plate reader (Varioskan Flash Microplate Reader, Thermo Fisher Scientific Co., Beijing) as an indicator of growth inhibition. The resulting checkerboard contained each combination of peptide and antibiotic in 9 doubly increasing concentrations, with wells containing the highest concentration of each antibiotic at opposite corners. The concentrations tested for every combination of peptide-antibiotic were their respective MICs. MH medium and the peptide/antibiotic combination served as negative and positive controls, respectively. The FICI is calculated as FICa plus FICb, where FICa is the MIC of the peptide in the presence of antibiotics/the MIC of the peptide alone, and FICb is the MIC of the antibiotic in the presence of peptide/the MIC of the antibiotic alone. Drug interactions were defined as follows: synergy, FICI ≤ 0.5; additive effect, 0.5 < FICI ≤ 1; and indifference, 1 < FICI ≤ 2 ([Hollander et al., 1998]; [Yoon et al., 2004]). The results were recorded in at least three independent experiments, and the median FICI values were used in the analysis.

MRPA0108 strain = settings: previous study, ref Han et al., 2020; cited from earlier work
Description: Supplement Table_1.docx, table 1: Table S1 Biological characteristics and antibacterial activities of the Trp-containing antimicrobial peptides (32) | column: MIC(μM)

[2] = cited from earlier work
Description: Supplement Table_1.docx, table 1: Table S1 Biological characteristics and antibacterial activities of the Trp-containing antimicrobial peptides (32) | column: Hemolysis (μM)

[3] = tested on: LasB elastase of MRPA0108; experiment: LasB elastase activity, elastin-Congo red method; type: cell-based, Pseudomonas aeruginosa; settings: peptide at 1/4 × MIC, 24 h, 37°C; ECR substrate, OD495/OD600; vs control; triplicate
Protocol: as §1, with “The rhamnolipid extract dissolved in ultrapure water was mixed with orcinol reagent (0.19% orcinol in 53% H2SO4) and incubated at 80°C for 30 min.” left out

[4] = tested on: pyocyanin production in MRPA0108; experiment: Pyocyanin production assay; type: cell-based, Pseudomonas aeruginosa; settings: peptide at 1/4 × MIC, 24 h; OD 520 nm; vs untreated control; triplicate
Protocol: The culture supernatant was obtained after centrifugation at 12,000×g for 10 min. (1) LasB elastase activity was measured using elastin-Congo red (ECR) as the substrate, as described by [Pattnaik et al. (2018)]. Briefly, 100 μl of the culture supernatant was added to 900 μl of ECR buffer (100 mM Tris-HCl, 1 mM CaCl2, pH 7.5) containing 10 mg of ECR and then incubated with shaking at 37°C for 18 h. Then, 100 μl of 0.12 M EDTA was added to stop the reaction. The insoluble ECR was removed by centrifugation, and the supernatant absorbance was measured at 495 nm. The optical density (OD) 495 nm/OD 600 nm represents the elastase activity. (2) LasA protease activity was measured as follows ([Pattnaik et al., 2018]): first, the culture supernatant was filtered to remove the bacterial cells, and then 150 μl of sterile-filtered supernatant was added to 2% azocasein (prepared in 50 mM Tris-HCl) and incubated for 4 h at 37°C. […] After centrifugation at 10,000 rpm for 10 min, 1 M NaOH was added to the supernatant, and the relative protease activity was measured at OD 440 nm. (3) The pyocyanin assay was based on the absorbance of excreted pyocyanin at 520 nm in an acidic solution ([Kong et al., 2005]). […] The OD 520 nm was measured to evaluate the change in pyocyanin content. […] The absorbance was measured at 420 nm. (5) The level of C4-HSL was quantified by GC-MS as previously described ([Guo et al., 2012]).

MRPA0108 biofilms = experiment: Confocal laser scanning microscopy of biofilms (LIVE/DEAD staining); type: cell-based, Pseudomonas aeruginosa; settings: 24 h; for percentage of dead/live cells in biofilm: SYTO9/PI, control 8.7%
Protocol: Biofilms of MRPA0108 were visualized by confocal microscopy. Mid-log growth-phase bacteria were diluted to 1 × 10^7 CFU/ml. […] LB liquid medium and erythromycin were used as negative and positive controls, respectively. After incubation, the supernatant was removed, and the slides were washed and stained in a dark environment for 30 min using a LIVE/DEAD BacLight^TM Bacterial Viability Kit (Invitrogen, Life Technologies, Shanghai, China). The slides were washed three times and imaged with a confocal laser scanning microscope (LSM 710, Carl Zeiss, Germany) with excitation/emission wavelengths of 480/500 and 490/635 nm for SYTO9 and propidium iodide (PI), respectively. SYTO9 was used to indicate live bacteria, and PI was used to mark dead bacteria.

Row | Substance | inhibition of rhamnolipid production [1] | FICI in combination with ceftazidime (MRPA0108) | FICI in combination with piperacillin (MRPA0108) | MIC (MRPA0108 strain) | Hemolysis ([2]; as previously reported, ref Bi et al., 2013) | decrease of LasB elastase activity [3] | reduction of pyocyanin production [4] | average biofilm thickness (MRPA0108 biofilms; after treatment with low concentrations of peptide (1 × MIC or 2 × MIC), 37°C, control biofilm 6 μm) | percentage of dead/live cells in biofilm (MRPA0108 biofilms; peptide at 1 × MIC) | percentage of dead/live cells in biofilm (MRPA0108 biofilms; peptide at 2 × MIC) | FICI in combination with levofloxacin (MRPA0108) | Hemolysis [2]
1 | IKKILSKIKKWLK-NH2 [L11W] | 24.3% | 0.25 | 0.28–0.49 and 0.34 | 25 µM | > 500 µM |  |  |  |  |  |  | 
2 | IKKIWSKIKKLLK-NH2 [L5W] | 40.7% | 0.23 | 0.37 | 12.5 µM |  | 24.1% | 69.4% | 1.5–2.5 μm | 21.4% | 32.5% | 0.62 | > 500 µM
3 | IKKWWSKIKKLLK-NH2 [I4WL5W] | 37.5% | 0.43 | 0.68 | 12.5 µM |  |  |  |  |  |  | 1.12 | > 500 µM
4 | WKKIWSKIKKLLK-NH2 [I1WL5W] | 38.8% | 0.37 | 0.59 | 12.5 µM |  |  |  |  |  |  | 0.75 | > 500 µM
